Data reported in paper PMC4805251, “Novel Antimicrobial Peptides EeCentrocins 1, 2 and EeStrongylocin 2 from the Edible Sea Urchin Echinus esculentus Have 6-Br-Trp Post-Translational Modifications” (PLoS ONE, 2016).
Like-named read-outs stand apart in the source and are kept apart here. Ends that are not written are not given here.

Assays:
Assay type in all cases: cell-based
[1] = test system: E. coli #2, NR 698 (MC4100/ptD4213)
Text: (§1) Organic phase extract, SPE eluates and HPLC-fractions were screened for antibacterial activity against two strains of Gram-positive and two strains of Gram-negative bacteria; Corynebacterium glutamicum (ATCC 13032), Staphylococcus aureus (ATCC 9144), Pseudomonas aeruginosa #1 (ATCC 27853) and Escherichia coli #1 (ATCC 25922). For extended antimicrobial bioactivity screening, the following bacterial strains were used, three strains of Gram-positive bacteria; S. epidermidis #1 (5179-R1) kindly provided by Holger Rohde, S. epidermidis #2, RP62A (ATCC 35984) and Bacillus subtilis (ATCC 23857) in addition to the Gram-negative P. aeruginosa #2, PA 01 (ATCC 15692, DSM 19880) and E. coli #2, NR 698 (MC4100/ptD4213).
(§2) Cultures stored at -80°C were smeared onto agar plates and cultured for 24 h at 35°C. One colony of each bacterial strain was transferred to 5 ml liquid Müller-Hinton (MH, Difco, Lawrence, KS, USA) medium in a glass tube and left shaking at room temperature overnight at 600 rpm. The cultures of actively growing bacteria (20 μl) were further inoculated in 5 ml MH medium and left shaking for 2 h at room temperature. The antibacterial assays were performed as previously described by. Briefly, the bacterial cultures were diluted with medium to 1.3–1.5 × 10^4 bacteria/ml final concentrations and an aliquot of 50 μl was added to each well in 96-well Nunclon^TM microtiter plates (Nagle Nunc Int., Denmark) preloaded with 50 μl test sample solutions, i.e. extracts, eluates or peptides.
(§3) The test plates were incubated for 24 h at 35°C with optical density (OD595) recorded every hour using an Envision 2103 multilabel reader, controlled by the Wallac Envision manager (PerkinElmer, CT, USA). Antibacterial activity was defined as a sample showing >90% inhibition (as measured by optical density) compared to the negative (growth) controls, consisting of bacteria and water. Oxytetracycline (20 μM) served as a positive (inhibition) control. The minimum inhibitory concentration (MIC) was defined as the lowest concentration of a sample displaying >90% inhibition.
(§4) ACN-phases and SPE eluates were tested with two-fold serial dilutions ranging from 5.0 to 0.005 mg/ml (5.0, 2.5, 1.25, 0.63, 0.31, 0.16, 0.08, 0.04, 0.02, 0.01, 0.005 mg/ml) whereas HPLC-fractions were tested undiluted for antibacterial activity. Pure, native peptides and synthetic peptides (described in section 2.11) were tested for antimicrobial activity in concentrations ranging from 100 to 0.1 μM in two-fold serial dilutions (100, 50, 25, 12.5, 6.25, 3.13, 1.56, 0.78, 0.39, 0.20, 0.10 μM). Antimicrobial assays involving natural peptides (i.e. fractionated natural material) were run only once due to limited quantities, whereas all other assays were run in triplicates.

[2] = test system: Staphylococcus aureus (ATCC 9144)
Text: as §1, §2, §3, §4

[3] = test system: Corynebacterium glutamicum (ATCC 13032)
Text: as §1, §2, §3, §4

[4] = test system: P. aeruginosa #2, PA 01 (ATCC 15692, DSM 19880)
Text: as §1, §2, §3, §4

[5] = test system: S. epidermidis #2, RP62A (ATCC 35984)
Text: as §1, §2, §3, §4

[6] = test system: S. epidermidis #1 (5179-R1)
Text: as §1, §2, §3, §4

[7] = test system: Pseudomonas aeruginosa #1 (ATCC 27853)
Text: as §1, §2, §3, §4

[8] = test system: Candida albicans (ATCC 10231)
Procedure: (§5) The synthetic peptides (see section 2.11) were also screened for antifungal activity against Candida albicans (ATCC 10231), Saccharomyces cerevisiae, Rhodotorula sp., Aureobasidium pullulans and Cladosporium sp. The antifungal assay was performed as described previously. Briefly, fungal spores were dissolved in potato dextrose broth (Difco, Lawrence, KS, USA) to a concentration of 4 × 10^5 spores/ml. The spores (50 μl) were inoculated on 96-well Nunclon^TM microtiter plates containing the synthetic peptides (50 μl) dissolved in MQ-H2O. […] MIC was defined as the lowest concentration of peptide giving no visible fungal growth. The negative (growth) control contained medium and fungal solution.
as §4

[9] = test system: Rhodotorula sp.
Procedure: as §5, §4

[10] = test system: Aureobasidium pullulans
Procedure: as §5, §4

[11] = test system: Saccharomyces cerevisiae
Procedure: as §5, §4

[12] = test system: Cladosporium sp.
Procedure: as §5, §4

[13] = MH medium, 24 h at 35°C, OD595, >90% inhibition, value of Table 2, triplicates
[14] = MH medium, 24 h at 35°C, OD595, lowest concentration with >90% inhibition, value of Table 2, native peptides run once, synthetic in triplicates
[15] = potato dextrose broth, 24 h at room temperature, visual, no visible fungal growth, value of Table 2, triplicates

WGHKLRSSWNKVKHAVKKGAGYASGACRVLGH [EeCentrocin 2 HC]
MIC E. coli #2 [1, 13]: 6.25 µM | MIC raw data E. coli #2 ([1]; parallel 1 of three): 6.25 µM | MIC raw data E. coli #2 ([1]; parallel 2 of three): 3.13 µM | MIC raw data E. coli #2 ([1]; parallel 3 of three): 3.13 µM | MIC S. aureus [2, 14]: 6.25 µM | MIC raw data S. aureus ([2]; parallel 1 of three): 6.25 µM | MIC raw data S. aureus ([2]; parallel 2 of three): 6.25 µM | MIC raw data S. aureus ([2]; parallel 3 of three): 6.25 µM | MIC C. glutamicum [3, 14]: 0.78 µM | MIC raw data C. glutamicum ([3]; parallel 1 of three): 0.78 µM | MIC raw data C. glutamicum ([3]; parallel 2 of three): 0.78 µM | MIC raw data C. glutamicum ([3]; parallel 3 of three): 0.78 µM | MIC P. aeruginosa #2 [4, 13]: 6.25 µM | MIC raw data P. aeruginosa #2 ([4]; parallel 1 of three): 6.25 µM | MIC raw data P. aeruginosa #2 ([4]; parallel 2 of three): 6.25 µM | MIC raw data P. aeruginosa #2 ([4]; parallel 3 of three): 3.13 µM | MIC S. epidermidis #2 [5, 13]: 3.13 µM | MIC raw data S. epidermidis #2 ([5]; parallel 1 of three): 3.13 µM | MIC raw data S. epidermidis #2 ([5]; parallel 2 of three): 3.13 µM | MIC raw data S. epidermidis #2 ([5]; parallel 3 of three): 3.13 µM | MIC S. epidermidis #1 [6, 13]: 3.13 µM | MIC raw data S. epidermidis #1 ([6]; parallel 1 of three): 3.13 µM | MIC raw data S. epidermidis #1 ([6]; parallel 2 of three): 3.13 µM | MIC raw data S. epidermidis #1 ([6]; parallel 3 of three): 1.56 µM | MIC P. aeruginosa #1 ([7]; MH medium, 24 h at 35°C, OD595, >90% inhibition, value of Table 2, native peptides run once, synthetic in triplicates): 0.78 µM | MIC raw data P. aeruginosa #1 ([7]; parallel 1 of three): 0.78 µM | MIC raw data P. aeruginosa #1 ([7]; parallel 2 of three): 0.78 µM | MIC raw data P. aeruginosa #1 ([7]; parallel 3 of three): 0.78 µM | MIC raw data C. albicans ([8]; parallel 1 of three): 50 µM | MIC raw data C. albicans ([8]; parallel 2 of three): 50 µM | MIC raw data C. albicans ([8]; parallel 3 of three): 25 µM | MIC C. albicans [8, 15]: 50 µM | MIC raw data Rhodotorula sp. ([9]; parallel 1 of three): 3.13 µM | MIC raw data Rhodotorula sp. ([9]; parallel 2 of three): 3.13 µM | MIC raw data Rhodotorula sp. ([9]; parallel 3 of three): 3.13 µM | MIC Rhodotorula sp. [9, 15]: 3.13 µM | MIC raw data A. pullulans ([10]; parallel 1 of three): 25 µM | MIC raw data A. pullulans ([10]; parallel 2 of three): 25 µM | MIC raw data A. pullulans ([10]; parallel 3 of three): 25 µM | MIC A. pullulans [10, 15]: 25 µM | MIC raw data S. cerevisiae ([11]; parallel 1 of three): 12.5 µM | MIC raw data S. cerevisiae ([11]; parallel 2 of three): 12.5 µM | MIC raw data S. cerevisiae ([11]; parallel 3 of three): 12.5 µM | MIC S. cerevisiae [11, 15]: 12.5 µM | MIC raw data Cladosporium sp. ([12]; parallel 1 of three): 12.5 µM | MIC raw data Cladosporium sp. ([12]; parallel 2 of three): 12.5 µM | MIC raw data Cladosporium sp. ([12]; parallel 3 of three): 12.5 µM | MIC Cladosporium sp. [12, 15]: 12.5 µM
